Data as given in article PMC7254505 (ACS Omega, 2020).

Assays:
ALK2 over ALK5 = details: cited from earlier work
Plasma protein binding = assay type: in vitro ADME
[1] = cited from earlier work
CYP2C19 = CYP2C19 (Homo sapiens, UniProt P33261); assay: Cytochrome P450 inhibition, CYP2C19; assay type: in vitro ADME
CYP2C9 = CYP2C9 (Homo sapiens, UniProt P11712); assay: Cytochrome P450 inhibition, CYP2C9; assay type: in vitro ADME
Aqueous solubility = assay type: physicochemical
[2] = cited from earlier work; remark: listed apart in the source
Partition coefficient = assay type: physicochemical
HepG2 cells = assay: In vitro toxicity, HepG2 cell viability; assay type: cell-based
CYP3A4 = CYP3A4 (Homo sapiens, UniProt P08684); assay: Cytochrome P450 inhibition, CYP3A4; assay type: in vitro ADME
CYP2D6 = CYP2D6 (Homo sapiens, UniProt P10635); assay: Cytochrome P450 inhibition, CYP2D6; assay type: in vitro ADME
CYP1A2 = target: T1, CYP1A2 (Homo sapiens, UniProt P05177); assay: Cytochrome P450 inhibition, CYP1A2; assay type: in vitro ADME
T1 sequence (P05177 1-516): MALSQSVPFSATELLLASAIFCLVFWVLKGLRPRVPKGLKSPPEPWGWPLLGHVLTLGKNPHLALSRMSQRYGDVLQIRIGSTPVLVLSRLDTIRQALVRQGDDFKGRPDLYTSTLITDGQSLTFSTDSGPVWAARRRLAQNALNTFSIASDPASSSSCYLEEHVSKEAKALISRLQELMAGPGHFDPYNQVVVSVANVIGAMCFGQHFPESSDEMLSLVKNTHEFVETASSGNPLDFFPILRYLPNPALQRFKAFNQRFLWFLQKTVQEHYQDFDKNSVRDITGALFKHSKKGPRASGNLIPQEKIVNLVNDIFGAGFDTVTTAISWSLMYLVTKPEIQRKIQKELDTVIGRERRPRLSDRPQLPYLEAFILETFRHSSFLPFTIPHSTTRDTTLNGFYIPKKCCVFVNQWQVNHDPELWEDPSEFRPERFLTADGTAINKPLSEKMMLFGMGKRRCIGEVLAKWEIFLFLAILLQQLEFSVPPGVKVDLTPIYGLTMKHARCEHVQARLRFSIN

ALK2 (R206H) = target: T2, ALK2 (R206H) (Homo sapiens, UniProt Q04771, R206H); assay: In vitro enzyme assay; assay type: biochemical
T2 sequence (Q04771 21-509 R206H): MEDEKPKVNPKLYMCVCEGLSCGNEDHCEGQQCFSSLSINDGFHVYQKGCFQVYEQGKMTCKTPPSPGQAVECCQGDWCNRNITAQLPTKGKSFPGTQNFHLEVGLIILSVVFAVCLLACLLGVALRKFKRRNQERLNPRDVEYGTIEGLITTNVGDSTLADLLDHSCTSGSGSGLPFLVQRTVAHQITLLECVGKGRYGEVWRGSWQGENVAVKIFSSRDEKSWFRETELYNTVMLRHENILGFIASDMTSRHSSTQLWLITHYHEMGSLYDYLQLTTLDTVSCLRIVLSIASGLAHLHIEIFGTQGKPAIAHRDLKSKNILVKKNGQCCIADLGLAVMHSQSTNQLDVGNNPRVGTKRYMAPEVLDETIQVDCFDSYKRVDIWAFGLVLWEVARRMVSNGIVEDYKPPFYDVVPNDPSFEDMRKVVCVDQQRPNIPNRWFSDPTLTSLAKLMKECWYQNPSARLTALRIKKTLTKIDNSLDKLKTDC

Sequence of CYP2C9 (P11712 whole entry): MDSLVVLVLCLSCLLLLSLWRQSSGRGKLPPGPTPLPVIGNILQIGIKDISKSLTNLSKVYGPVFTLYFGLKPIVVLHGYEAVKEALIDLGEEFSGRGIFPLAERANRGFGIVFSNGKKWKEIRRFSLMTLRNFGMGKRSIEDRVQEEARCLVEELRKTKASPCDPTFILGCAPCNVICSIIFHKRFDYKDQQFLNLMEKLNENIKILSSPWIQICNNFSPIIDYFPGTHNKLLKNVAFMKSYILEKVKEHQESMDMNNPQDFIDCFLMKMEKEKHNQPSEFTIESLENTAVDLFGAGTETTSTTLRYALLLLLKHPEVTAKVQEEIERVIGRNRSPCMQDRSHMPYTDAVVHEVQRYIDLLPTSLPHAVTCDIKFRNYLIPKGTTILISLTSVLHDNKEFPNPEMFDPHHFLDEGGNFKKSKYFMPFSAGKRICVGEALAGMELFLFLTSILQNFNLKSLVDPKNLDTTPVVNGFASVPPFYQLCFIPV
Sequence of CYP2C19 (P33261 whole entry): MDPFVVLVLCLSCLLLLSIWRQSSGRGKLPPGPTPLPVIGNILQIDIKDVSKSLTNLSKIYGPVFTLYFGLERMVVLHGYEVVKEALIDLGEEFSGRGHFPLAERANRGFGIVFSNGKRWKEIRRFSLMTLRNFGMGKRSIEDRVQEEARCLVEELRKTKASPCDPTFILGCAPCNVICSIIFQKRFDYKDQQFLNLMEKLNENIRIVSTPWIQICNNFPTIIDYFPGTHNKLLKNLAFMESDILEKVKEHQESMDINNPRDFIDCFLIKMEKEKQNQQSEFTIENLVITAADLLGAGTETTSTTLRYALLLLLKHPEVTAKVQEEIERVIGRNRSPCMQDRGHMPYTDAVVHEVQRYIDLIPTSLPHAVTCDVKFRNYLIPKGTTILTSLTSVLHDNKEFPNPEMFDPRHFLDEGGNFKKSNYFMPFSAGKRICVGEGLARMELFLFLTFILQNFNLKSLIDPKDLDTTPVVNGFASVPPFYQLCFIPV
Sequence of CYP2D6 (P10635 whole entry): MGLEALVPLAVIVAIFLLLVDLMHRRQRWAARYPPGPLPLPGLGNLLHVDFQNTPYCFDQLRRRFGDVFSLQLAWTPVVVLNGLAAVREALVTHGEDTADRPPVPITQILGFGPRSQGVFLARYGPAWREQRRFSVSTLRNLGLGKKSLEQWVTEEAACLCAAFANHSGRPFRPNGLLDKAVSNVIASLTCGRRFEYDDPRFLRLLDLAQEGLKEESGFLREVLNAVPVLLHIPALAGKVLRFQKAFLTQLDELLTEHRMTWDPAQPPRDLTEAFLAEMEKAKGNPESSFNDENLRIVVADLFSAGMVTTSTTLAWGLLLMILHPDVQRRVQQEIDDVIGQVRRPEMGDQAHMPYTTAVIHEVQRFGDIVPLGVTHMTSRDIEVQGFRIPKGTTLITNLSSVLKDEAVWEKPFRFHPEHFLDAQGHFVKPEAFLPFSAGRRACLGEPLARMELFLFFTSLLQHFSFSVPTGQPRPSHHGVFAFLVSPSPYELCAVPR
Sequence of CYP3A4 (P08684 whole entry): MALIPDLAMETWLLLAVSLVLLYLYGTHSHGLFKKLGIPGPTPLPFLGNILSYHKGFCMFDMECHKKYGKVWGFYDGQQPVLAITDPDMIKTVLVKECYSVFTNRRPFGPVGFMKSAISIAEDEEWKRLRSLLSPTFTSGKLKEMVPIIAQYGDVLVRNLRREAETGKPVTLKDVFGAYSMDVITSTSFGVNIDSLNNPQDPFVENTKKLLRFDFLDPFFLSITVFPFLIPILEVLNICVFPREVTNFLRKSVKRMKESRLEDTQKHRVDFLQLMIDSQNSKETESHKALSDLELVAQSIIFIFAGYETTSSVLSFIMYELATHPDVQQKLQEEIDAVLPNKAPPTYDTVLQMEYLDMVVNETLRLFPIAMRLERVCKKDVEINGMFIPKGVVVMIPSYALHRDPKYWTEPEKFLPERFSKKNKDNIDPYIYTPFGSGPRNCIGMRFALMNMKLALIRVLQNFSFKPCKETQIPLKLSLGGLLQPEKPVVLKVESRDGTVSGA

## COc1cc(-c2cc(-c3ccc(N4CCNCC4)cc3)cnc2C)cc(OC)c1OC [LDN-214117]
ALK2 over ALK5
  selectivity for ALK2 over ALK5: more than 100 fold

## c1ccc2c(-c3cnn4cc(-c5ccc(N6CCNCC6)cc5)cnc34)ccnc2c1 [LDN-193189]
Plasma protein binding
  PPB human (%) at 10 μM: 97.8%
[1]
  binding to serum proteins (in words): highly bound
CYP2C19
  CYP2C19 % inh. at 10 μM: 34%
CYP2C9
  CYP2C9 % inh. at 10 μM: 30%
Aqueous solubility
  aqueous solubility at pH 7.4: 10.6 μg/mL
[2]
  solubility in aqueous solutions (in words): poorly soluble
Partition coefficient
  partition coefficient (log D, n-octanol/PBS, pH 7.4): 2.26
HepG2 cells
  in vitro toxicity HepG2 cell (% viability at 30 μM): 77%
CYP3A4
  CYP3A4 % inh. at 10 μM: 82%
CYP2D6
  CYP2D6 % inh. at 10 μM: 30%
CYP1A2
  CYP1A2 % inh. at 10 μM: 28%

## c1cncc(-c2n[nH]cc2-c2ccnc(Nc3ccc(N4CCNCC4)cc3)n2)c1 [Compound 1, N-[4-(Piperazin-1-yl)phenyl]-4-(3-pyridin-3-yl-1H-pyrazol-4-yl)pyrimidin-2-amine]
ALK2 (R206H)
  IC50: 0.0479 µM

## c1cc(-c2cnn3cc(-c4ccc(N5CCNCC5)cc4)cnc23)c2cccnc2c1 [LDN-212854]
[1]
  binding to serum proteins (in words): highly bound
[2]
  solubility in aqueous solutions (in words): poorly soluble
